According to PubChem BioAssay AID1224921 (Broad Institute, 2016):
Activity calls are given as the source filed them. No rule for the calls is given here.

The molecules below were run on Clostridioides difficile clinical isolate growth, OD600, 24 h (assay: inhibitors of Clostridioides difficile proliferation – 4-point retest, confirmation (AID 1224921)).
O=C(C[C@H]1CC[C@H]2[C@@H](COC[C@@H](O)CN2C(=O)Nc2ccc(Cl)c(Cl)c2)O1)NCc1ccc(Cl)cc1 was tested, and the AC50 was 1.03 µM. In the case of CCC(=O)N[C@H]1CC[C@@H](CCNC(=O)Nc2ccc(C(F)(F)F)cc2)O[C@H]1CO, the AC50 is reported as 2.41 µM. Work on CC(=O)N[C@@H]1CC[C@@H](CCNC(=O)Nc2ccc(C(F)(F)F)cc2)O[C@@H]1CO yielded an AC50 of 8.39 µM. In the case of CO[C@@H]1CN(C)C(=O)c2cc(NC(=O)c3cc(C)on3)ccc2OC[C@H](C)N(C(C)=O)C[C@@H]1C, the AC50 is reported as > 60 µM (inactive). For C[C@@H]1CN([C@H](C)CO)C(=O)c2cccc(NC(=O)Nc3ccc(C(F)(F)F)cc3)c2O[C@@H]1CN(C)Cc1ccc(-c2ccccc2)cc1, the AC50 was 18.3 µM. For CCC(=O)Nc1ccc2c(c1)C(=O)N(C)C[C@@H](OC)[C@H](C)CN(C(=O)NC(C)C)[C@@H](C)CO2, the AC50 was > 60 µM (inactive). Work on O=C(C[C@H]1CC[C@H]2[C@@H](COC[C@H](O)CN2C(=O)Nc2ccc(C(F)(F)F)cc2)O1)NCC1CCCCC1 yielded an AC50 of 2.45 µM. Work on C[C@@H]1CCCCO[C@@H](CN(C)CC2CC2)[C@@H](C)CN([C@H](C)CO)C(=O)c2cc(NC(=O)Nc3ccc(C(F)(F)F)cc3)ccc2O1 yielded an AC50 of 35.5 µM. In the case of C[C@@H]1CN([C@@H](C)CO)S(=O)(=O)c2ccc(/C=C/c3ccccc3)cc2O[C@H]1CN(C)Cc1ccc(C(=O)O)cc1, the AC50 is reported as 1.35 µM. Molecule C[C@@H]1CN([C@H](C)CO)C(=O)c2cc(C#CCc3ccccc3)cnc2O[C@H]1CN(C)CC1CCCC1 has an AC50 of 31 µM. With O=C(C[C@H]1CC[C@H]2[C@@H](COC[C@H](O)CN2C(=O)Nc2ccc(C(F)(F)F)cc2)O1)NC1Cc2ccccc2C1 the AC50 was 1.54 µM. In the case of Cn1cnc(CCNC(=O)C[C@@H]2CC[C@@H]3[C@H](COC[C@H](O)CN3C(=O)Nc3ccc(C(F)(F)F)cc3)O2)c1, the AC50 is reported as 19.6 µM. In the case of O=C(Nc1ccc(-c2ccccc2)cc1)[C@@H]1[C@@H](CO)[C@@H]2Cn3c(cccc3=O)[C@@H]2N1CC1CCCCC1, the AC50 is reported as > 60 µM (inactive). With C[C@@H]1CCCCO[C@@H](CN(C)C)[C@H](C)CN([C@H](C)CO)C(=O)c2cc(NC(=O)Nc3ccc(C(F)(F)F)cc3)ccc2O1 the AC50 was 17.5 µM. O=C(C[C@H]1CC[C@@H]2[C@H](COC[C@@H](O)CN2C(=O)Nc2ccc(Cl)c(Cl)c2)O1)NCc1ccncc1 showed an AC50 of 4.06 µM. Work on CCS(=O)(=O)N1[C@H](CO)[C@H](c2ccc(C#CCC3CCCC3)cc2)[C@@H]1C#N yielded an AC50 of 19.8 µM. In the case of COc1ccc(CN(C)C[C@H]2Oc3c(NC(=O)Nc4ccc(C(F)(F)F)cc4)cccc3C(=O)N([C@@H](C)CO)C[C@H]2C)cc1, the AC50 is reported as 1.65 µM. CO[C@@H]1CN(C)C(=O)c2ccc(NC(=O)c3ccccc3)cc2OC[C@H](C)N(C(=O)C2CC2)C[C@H]1C was tested, and the AC50 was > 60 µM (inactive). Work on CO[C@H](CN(C)C(=O)C1CC1)[C@H](C)CN(C(=O)Nc1ccc(C(F)(F)F)cc1)[C@H](C)CO yielded an AC50 of 2.98 µM.
